Laboratory results taken from ChEMBL document CHEMBL5620353, “Novel antifungal triazoles with alkynyl-methoxyl side chains: Design, synthesis, and biological activity evaluation” (Eur J Med Chem, 2023).
Values after ≈ are worked out from the molar mass of the structure shown. Active and inactive are the calls of the source. No cut-off for these calls is given here.

Legend:
[1] = system: Saccharomyces cerevisiae; experiment: Antifungal activity against recombinant Saccharomyces cerevisiae Y525 overexpressing CaMdr1 assessed as inhibition of fungal growth incubated for 48 hrs by microbroth dilution method; type: functional
[2] = system: Saccharomyces cerevisiae; experiment: Antifungal activity against recombinant Saccharomyces cerevisiae Y570 overexpressing CaCdr1 assessed as inhibition of fungal growth incubated for 48 hrs by microbroth dilution method; type: functional
[3] = system: Saccharomyces cerevisiae; experiment: Antifungal activity against recombinant Saccharomyces cerevisiae Y2411 overexpressing ScErg11 assessed as inhibition of fungal growth incubated for 48 hrs by microbroth dilution method; type: functional
[4] = system: Saccharomyces cerevisiae; experiment: Antifungal activity against recombinant Saccharomyces cerevisiae Y2300 overexpressing ScErg11 assessed as inhibition of fungal growth incubated for 48 hrs by microbroth dilution method; type: functional
[5] = system: Saccharomyces cerevisiae; experiment: Antifungal activity against recombinant Saccharomyces cerevisiae Y2301 overexpressing ScErg11 Y140F assessed as inhibition of fungal growth incubated for 48 hrs by microbroth dilution method; type: functional
[6] = system: Saccharomyces cerevisiae; experiment: Antifungal activity against recombinant Saccharomyces cerevisiae Y2513 overexpressing ScErg11 Y140H assessed as inhibition of fungal growth incubated for 48 hrs by microbroth dilution method; type: functional
[7] = system: Saccharomyces cerevisiae; experiment: Antifungal activity against recombinant Saccharomyces cerevisiae Y2374 overexpressing CgErg11 assessed as inhibition of fungal growth incubated for 48 hrs by microbroth dilution method; type: functional
[8] = system: Saccharomyces cerevisiae; experiment: Antifungal activity against recombinant Saccharomyces cerevisiae Y2462 overexpressing ScErg11 ScNcp1 assessed as inhibition of fungal growth incubated for 48 hrs by microbroth dilution method; type: functional
[9] = system: Saccharomyces cerevisiae; experiment: Antifungal activity against recombinant Saccharomyces cerevisiae Y2459 overexpressing CaErg11 CaCpr assessed as inhibition of fungal growth incubated for 48 hrs by microbroth dilution method; type: functional
[10] = system: Saccharomyces cerevisiae; experiment: Antifungal activity against recombinant Saccharomyces cerevisiae Y2721 overexpressing CpErg11 CpCpr assessed as inhibition of fungal growth incubated for 48 hrs by microbroth dilution method; type: functional
[11] = system: Saccharomyces cerevisiae; experiment: Antifungal activity against recombinant Saccharomyces cerevisiae Y2716 overexpressing CpErg11 Y132F CpCpr assessed as inhibition of fungal growth incubated for 48 hrs by microbroth dilution method; type: functional
[12] = system: Saccharomyces cerevisiae; experiment: Resistance index, ratio of MIC for recombinant Saccharomyces cerevisiae Y525 overexpressing CaMdr1 to MIC for recombinant Saccharomyces cerevisiae Y2411 overexpressing ScErg11; type: functional
[13] = Metabolic stability in human liver microsomes assessed as half life at 1 uM preincubated for 10 mins followed by NADPH addition and measured upto 60 mins by LC-MS/MS analysis; type: ADME, Microsome; settings: time < 70 min
[14] = Metabolic stability in human liver microsomes assessed as intrinsic clearance at 1 uM preincubated for 10 mins followed by NADPH addition and measured upto 60 mins by LC-MS/MS analysis; type: ADME, Microsome; settings: time < 70 min, read-out: CLH
[15] = system: Candida albicans; experiment: Antifungal activity against Candida albicans SC5314 assessed as inhibition of fungal growth incubated for 48 hrs by microbroth dilution method; type: functional
[16] = system: Candida albicans; experiment: Antifungal activity against Candida albicans 10231 assessed as inhibition of fungal growth incubated for 48 hrs by microbroth dilution method; type: functional
[17] = system: Nakaseomyces glabratus; experiment: Antifungal activity against Candida glabrata 537 assessed as inhibition of fungal growth incubated for 48 hrs by microbroth dilution method; type: functional
[18] = system: Candida parapsilosis; experiment: Antifungal activity against Candida parapsilosis 22019 assessed as inhibition of fungal growth incubated for 48 hrs by microbroth dilution method; type: functional; settings: Lodderomyces parapsilosis
[19] = system: Pichia kudriavzevii; experiment: Antifungal activity against Candida krusei 4996 assessed as inhibition of fungal growth incubated for 48 hrs by microbroth dilution method; type: functional
[20] = system: Candida tropicalis; experiment: Antifungal activity against Candida tropicalis 8915 assessed as inhibition of fungal growth incubated for 48 hrs by microbroth dilution method; type: functional
[21] = system: Cryptococcus neoformans; experiment: Antifungal activity against Cryptococcus neoformans 32,609 assessed as inhibition of fungal growth incubated for 72 hrs by microbroth dilution method; type: functional
[22] = system: Aspergillus fumigatus; experiment: Antifungal activity against Aspergillus fumigatus 7544 assessed as inhibition of fungal growth incubated for 72 hrs by microbroth dilution method; type: functional
[23] = system: Candida albicans; experiment: Antifungal activity against fluconazole-resistant Candida albicans 901 assessed as inhibition of fungal growth incubated for 48 hrs by microbroth dilution method; type: functional
[24] = system: Candida albicans; experiment: Antifungal activity against fluconazole-resistant Candida albicans 904 assessed as inhibition of fungal growth incubated for 48 hrs by microbroth dilution method; type: functional
[25] = system: [Candida] auris; experiment: Antifungal activity against fluconazole-resistant Candida auris 891 assessed as inhibition of fungal growth incubated for 48 hrs by microbroth dilution method; type: functional; settings: Candidozyma auris
[26] = system: [Candida] auris; experiment: Antifungal activity against fluconazole-resistant Candida auris 918 assessed as inhibition of fungal growth incubated for 48 hrs by microbroth dilution method; type: functional; settings: Candidozyma auris
[27] = system: [Candida] auris; experiment: Antifungal activity against fluconazole-resistant Candida auris 919 assessed as inhibition of fungal growth incubated for 48 hrs by microbroth dilution method; type: functional; settings: Candidozyma auris
[28] = system: Candida albicans; experiment: Antifungal activity against Candida albicans SC5314 assessed as inhibition of fungal growth at 0.5 ug/ml incubated for 48 hrs by spot assay; type: functional, organism-based; settings: dose 0.5 µg/ml
[29] = system: Candida albicans; experiment: Antifungal activity against Candida albicans 10231 assessed as inhibition of fungal growth at 0.5 ug/ml incubated for 48 hrs by spot assay; type: functional, organism-based; settings: dose 0.5 µg/ml
[30] = system: Candida albicans; experiment: Antifungal activity against fluconazole-resistant Candida albicans 904 assessed as inhibition of fungal growth at 0.5 ug/ml incubated for 48 hrs by spot assay; type: functional, organism-based; settings: dose 0.5 µg/ml
[31] = system: Candida parapsilosis; experiment: Antifungal activity against Candida parapsilosis 22019 assessed as inhibition of fungal growth at 0.5 ug/ml incubated for 48 hrs by spot assay; type: functional, organism-based; settings: dose 0.5 µg/ml
[32] = system: Nakaseomyces glabratus; experiment: Antifungal activity against Candida glabrata 537 assessed as inhibition of fungal growth at 0.5 ug/ml incubated for 48 hrs by spot assay; type: functional, organism-based; settings: dose 0.5 µg/ml
[33] = system: Cryptococcus neoformans; experiment: Antifungal activity against Cryptococcus neoformans 32,609 assessed as inhibition of fungal growth at 0.5 ug/ml incubated for 48 hrs by spot assay; type: functional, organism-based; settings: dose 0.5 µg/ml
[34] = system: [Candida] auris; experiment: Antifungal activity against Candida auris 891 assessed as inhibition of fungal growth at 0.5 ug/ml incubated for 48 hrs by spot assay; type: functional, organism-based; settings: Candidozyma auris, dose 0.5 µg/ml
[35] = system: Candida albicans; experiment: Antifungal activity against Candida albicans SC5314 assessed as reduction in fungal growth and viability at 2 ug/ml incubated for 48 hrs by spot assay; type: functional, organism-based; settings: dose 2.0 µg/ml
[36] = system: Candida albicans; experiment: Antifungal activity against Candida albicans 904 assessed as reduction in fungal growth and viability at 2 ug/ml incubated for 48 hrs by spot assay; type: functional, organism-based; settings: dose 2.0 µg/ml
[37] = system: Candida albicans; experiment: Antifungal activity against Candida albicans SC5314 assessed as inhibition of fungal growth at 4 ug/ml measured after 12 hrs by optical density based method; type: functional, organism-based; settings: dose 4.0 µg/ml
[38] = system: Candida albicans; experiment: Inhibition of biofilm formation in Candida albicans SC5314 at 64 ug/ml incubated for 24 hrs by XTT reduction assay relative to control; type: functional
[39] = system: Candida albicans; experiment: Antibiofilm activity against Candida albicans SC5314 preformed biofilms at 4 ug/ml incubated for 24 hrs by XTT reduction assay relative to control; type: functional; parameters: scale not given: the % may be the effect or the level left; settings: dose 4 µg/ml
[40] = system: Candida albicans; experiment: Antibiofilm activity against Candida albicans SC5314 preformed biofilms at 16 ug/ml incubated for 24 hrs by XTT reduction assay relative to control; type: functional; parameters: scale not given: the % may be the effect or the level left; settings: dose 16 µg/ml
[41] = system: Candida albicans; experiment: Antibiofilm activity against Candida albicans SC5314 preformed biofilms at 64 ug/ml incubated for 24 hrs by XTT reduction assay relative to control; type: functional; parameters: scale not given: the % may be the effect or the level left; settings: dose 64 µg/ml
[42] = system: Candida albicans; experiment: Antifungal activity against Candida albicans assessed as reduction in hyphal length at 16 ug/ml; type: functional, organism-based; settings: dose 16.0 µg/ml
[43] = system: Candida albicans; experiment: Antifungal activity against Candida albicans assessed as increase in pseudohyphae at 16 ug/ml; type: functional, organism-based; settings: dose 16.0 µg/ml
[44] = target: Lanosterol 14-alpha demethylase (Candida albicans (strain SC5314 / ATCC MYA-2876) (Yeast), UniProt P10613); experiment: Inhibition of Lanosterol 14-alpha demethylase in Candida albicans SC5314 assessed as reduction in ergosterol level at 8 ug/ml incubated for 8 hrs by GC-MS analysis relative to control; settings: at 8 µg/mL
Sequence of Lanosterol 14-alpha demethylase (P10613 whole entry): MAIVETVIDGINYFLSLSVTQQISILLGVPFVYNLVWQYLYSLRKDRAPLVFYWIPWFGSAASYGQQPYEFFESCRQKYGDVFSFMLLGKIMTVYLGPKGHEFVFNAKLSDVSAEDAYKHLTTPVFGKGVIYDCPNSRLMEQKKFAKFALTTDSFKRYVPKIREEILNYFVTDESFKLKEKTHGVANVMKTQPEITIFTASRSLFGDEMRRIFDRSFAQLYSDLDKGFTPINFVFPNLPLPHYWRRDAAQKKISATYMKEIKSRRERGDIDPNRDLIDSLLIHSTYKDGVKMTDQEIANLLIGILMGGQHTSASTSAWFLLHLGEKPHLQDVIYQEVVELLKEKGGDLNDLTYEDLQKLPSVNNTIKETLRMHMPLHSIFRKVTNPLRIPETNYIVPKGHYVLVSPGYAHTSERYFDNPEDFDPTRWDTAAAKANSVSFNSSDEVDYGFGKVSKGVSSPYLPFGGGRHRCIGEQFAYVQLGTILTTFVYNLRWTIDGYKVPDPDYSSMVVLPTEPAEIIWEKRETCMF

[45] = Cytotoxicity against HUVEC cells assessed as cell survival at 128 ug/ml incubated for 24 hrs by CCK-8 assay relative to control; type: toxicity, cell-based; settings: human, at 128 µg/mL, read-out: Survival
[46] = Selectivity index, ratio of IC50 for HUVEC cells to MIC for Candida albicans SC5314; type: toxicity; settings: human, HUVEC cells versus Candida albicans SC5314; read-out: Selectivity Index
[47] = Selectivity index, ratio of IC50 for HUVEC cells to MIC for Candida glabrata 537; type: toxicity; settings: human, HUVEC cells versus Candida glabrata 537; read-out: Selectivity Index
[48] = system: Candida albicans; experiment: Antifungal activity against Candida albicans SC5314 infected in Galleria mellonella larvae assessed as delay in time of larval death at 8 mg/kg measured after 10 days post inoculation; type: functional, organism-based; settings: time 10.0 day
[49] = system: Candida albicans; experiment: Antifungal activity against Candida albicans SC5314 infected in Galleria mellonella larvae assessed as median survival time at 8 mg/kg measured after 10 days post inoculation; type: functional; settings: time 10 day
[50] = system: Candida albicans; experiment: Antifungal activity against Candida albicans SC5314 infected in Galleria mellonella larvae assessed as larval survival rate at 8 mg/kg measured after 10 days post inoculation relative to control; type: functional; settings: SC5314, 240 h, time 10 day
[51] = system: Candida albicans; experiment: Antifungal activity against Candida albicans SC5314 infected in Galleria mellonella larvae assessed as protection against fungal infection at 2 mg/kg measured after 10 days post inoculation; type: functional, organism-based; settings: time 10.0 day

C[C@@H](c1ncncc1F)[C@](O)(Cn1cncn1)c1ccc(F)cc1F [VORICONAZOLE]
MIC [1]: 0.5 µg/mL | MIC [2]: 8 µg/mL | MIC [3]: 0.008 µg/mL | MIC [4]: 0.031 µg/mL | MIC [5]: 0.031 µg/mL | MIC [6]: 0.031 µg/mL | MIC [7]: 0.031 µg/mL | MIC [8]: 0.063 µg/mL | MIC [9]: 0.016 µg/mL | MIC [10]: 0.063 µg/mL | MIC [11]: 0.25 µg/mL | Ratio [12]: 64

Cc1ncc2n1-c1ccc(Cl)cc1C(c1ccccc1F)=NC2 [MIDAZOLAM]
half-life at 1 µM [13]: 4.67 min | microsomal CLint at 1 µM [14]: 297 µL/min/mg

CC(=O)N1CCN(c2ccc(OCC3COC(Cn4ccnc4)(c4ccc(Cl)cc4Cl)O3)cc2)CC1 (centres undefined) [KETOCONAZOLE]
MIC [1]: 1 µg/mL | MIC [2]: > 64 µg/mL | MIC [3]: 0.5 µg/mL | MIC [4]: 2 µg/mL | MIC [5]: 2 µg/mL | MIC [6]: 1 µg/mL | MIC [7]: 1 µg/mL | MIC [8]: 1 µg/mL | MIC [9]: 0.5 µg/mL | MIC [10]: 0.5 µg/mL | MIC [11]: 2 µg/mL

OC(Cn1cncn1)(Cn1cncn1)c1ccc(F)cc1F [FLUCONAZOLE]
MIC [15]: 0.5 µg/mL (≈ 1.63 µM) | MIC [16]: > 64 µg/mL | MIC [17]: 1 µg/mL (≈ 3.27 µM) | MIC [18]: 4 µg/mL (≈ 13.1 µM) | MIC [19]: 64 µg/mL (≈ 209 µM) | MIC [20]: > 64 µg/mL | MIC [21]: 2 µg/mL (≈ 6.53 µM) | MIC [22]: > 64 µg/mL | MIC [23]: > 256 µg/mL | MIC [24]: > 256 µg/mL | MIC [25]: > 256 µg/mL | MIC [26]: > 256 µg/mL | MIC [27]: > 256 µg/mL | Activity [28]: inactive | Activity [29]: inactive | Activity [30]: inactive | Activity [31]: inactive | Activity [32]: inactive | Activity [33]: inactive | Activity [34]: inactive | Activity [35]: Active | Activity [36]: Active | Activity [37]: Active | inhibition at 64 µg/mL [38]: 26.1% | Activity [39]: 31.38% | Activity [40]: 34.47% | Activity [41]: 33.39% | Activity [42]: Active | Activity [43]: Active | inhibition (INH) [44]: ~ 100% | viability at 24 h, 128 ug/ml [45]: 43.7% | selectivity ratio [46]: 100 | selectivity ratio [47]: 50 | Activity [48]: Active | MST [49]: 10 days | survival at 8 mg/kg [50]: 46.7% | Activity [51]: Active | MIC [1]: 32 µg/mL | MIC [2]: > 64 µg/mL | MIC [3]: 1 µg/mL | MIC [4]: 4 µg/mL | MIC [5]: 8 µg/mL | MIC [6]: 8 µg/mL | MIC [7]: 4 µg/mL | MIC [8]: 8 µg/mL | MIC [9]: 2 µg/mL | MIC [10]: 4 µg/mL | MIC [11]: 32 µg/mL | Ratio [12]: 32
